Laboratory results: patent publication US20240009175A9, “TETRAZOLE DERIVATIVES” (Merck Patent GmbH, priority 2020, published 2024)

What was measured:
human rec ACSS2 = human rec ACSS2 (Homo sapiens (Human), UniProt Q9NR19); assay: Biochemical activity ACSS2 assay (AMP-Glo); details: human recombinant ACSS2, AMP-Glo, 180 min at 37° C.
Text: Biochemical Activity ACSS2 Assay (IC50 ACSS2 Biochemical)
The biochemical activity assay for ACSS2 is based on the detection of released AMP by AMP-Glo™ Assay kit (Promega, Madison). The assay is run in three steps: the enzymatic reaction in which human rec ACSS2 activates acetate with ATP and Coenzyme A as cosubstrates to acetyl-CoA thereby releasing AMP and the detection reaction of AMP by AMP Glo assay in which after the destruction of the residual ATP with AMP Glo reagent 1 produced AMP is converted to ATP that is measured in a luciferase assay system (detection reagent). The ACSS2 activity correlates with the detected luminescence signal.
The assay was performed in Perkin Elmer 384 well white Proxiplates in a total volume of 8 μl.
1 nM (fc)C-term myc tagged ACSS2 (human, recombinant, Origene, Rockville, US) and a mixture of 100 μM (fc) ATP, 100 μM (fc) Coenzyme A and 500 μM (fc) sodium acetate were incubated in a total volume of 5 μl (50 mM Hepes, 1 mM Mg-chloride, 150 mM NaCl, 1 mM DTT, 0.01% (w/v) BSA, 0.3% DMSO, pH 7.5) in the absence or presence of the test compound (10 dilution concentrations, start conc 30 μM) for 180 min at 37° C. The reaction was stopped and residual ATP destroyed by the addition of 1 μl AMP Glo reagent solution (Promega, Madison, US). After 1h incubation at room temperature 2 μl of AMP Glo detection reagent was added and the assay was incubated for 0.75 hr at room temperature. The luminescence signal was measured with an Envision multimode reader (Perkin Elmer LAS Germany GmbH) at 700 nm in luminescence mode. The full value used was the inhibitor-free reaction. The pharmacological zero value was generated by addition of ACSS2 inhibitor (Ac-CoA Synthase Inhibitor—CAS 508186-14-9-Calbiochem) in a final concentration of 5 μM. The inhibitory values (IC50) were determined using the program Assay Analyzer® from GeneData.

ACSS2 = ACSS2 (Homo sapiens (Human), UniProt Q9NR19); assay: Cellular assay of 14C acetate incorporation into histones (IC50 ACSS2 cellular histone); format: cell-based; details: HCT-15 cells
Text: Cellular Assay of ^14C Acetate Incorporation into Histones (IC50 ACSS2 Cellular Histone)
This protocol describes a cellular assay capable to quantify endogenous histone acetylation activity in the human HCT-15 cancer cell line following the incorporation of extracellularly administered radiolabeled ^14C acetate with a scintillation based read out on acid extracted histones.
HCT-15 cells are trypsinized, washed and suspended in DMEM culture medium supplemented with penicillin/streptomycin (100 U/mL), sodium pyruvate (1 mM), and 10% FBS
Compounds serial dilutions are prepared in 96-well V-bottom microplate from 10 mM stock solutions in DMSO. From these dilutions 0.5 μl are transferred to a fresh plate including pure DMSO as negative control. The dilutions are prepared such, that the final concentration in the assay is 1/400 of the concentration in the serial dilution. The final DMSO concentration in the assay is 0.25%.
The cell suspension is seeded at densities of 2×10^5 cells per 170 μl into individual wells of a 96 well plate each containing 0.5 μl aliquots of compound serial dilutions and are kept for 1 h in a cell incubator. To each well 30 μL of a mixture containing 0.5 mCi/mL of ^14C-acetate with full medium are added. Then, the wells are incubated for 3 hrs in the cell incubator.
Further steps of the procedure should be conducted on ice or instrumentations precooled to 4° C. Cells are sedimented in the 96-well V-bottom microplate by centrifugation (Eppendorf 5804 R) at 1200 rpm for 5 min. The supernatant is removed and the cells are washed twice with 200 μL of PBS-NaB (5 mM sodium butyrate) buffer by iterative resuspension and centrifugation. Finally, the cells are resuspended in 50 μL of TEB (PBS-NaB+0.5% Triton X-100) and left on ice for 10 minutes. After centrifugation at 2300 rpm for 10 minutes at 4° C. the supernatant is removed, the remaining pellet is suspended in 50 μL of 0.2M HCl and incubated over night at 4° C. After incubation the well plate is shaken for 2 minutes in a MTP plate shaker set to 1200 rpm and then centrifuged at 3700 rpm for 10 mins. The lysate is carefully aspirated (˜43 μL) and transferred into a white MTP plate (Greiner bio-one 65509). 90 μL of Ultima Gold XR scintillation cocktail are added and the plates are sealed with a transparent cover tape before mixing vigorously using plate shaker set to 1200 rpm. Radioactivity from ^14C incorporation in the wells is measured as CPM count in a MicroBeta Trilux luminescence counter.

CHO-K1 cells = assay: Micronucleus assay (MNT) in vitro; format: cell-based; design: key: A: negative, putative negative (micronuclei detected beyond threshold of 60% cyctotoxicity); B: positive; details: 24 hrs treatment, 0.2 μM to 100 μM
Protocol: The in vitro MNT assay is performed in CHO-K1 cells due to their stable and well-characterized karyotype, high sensitivity and suitability for a high content imaging approach. They have a basal spontaneous micronucleus frequency of 3-4%.
24 hrs after plating CHO-K1 cells are treated with test compounds for 24 hrs (in duplicates; fixed concentration ranges from 0.2 μM to 100 μM in 2-fold dilution steps). After a medium change cells are incubated for 24 hrs with Cytochalasin B to block cytokinesis and are then fixed and nuclei/micronuclei visualized with a DNA stain. Images are acquired with the Molecular Devices high content imagers IXU or IXM and are analyzed with the dedicated MetaXpress software micronucleus module. Criteria for scoring of micronuclei (MN) are the following: • diameter of the MN should be less than ⅓ of the main nucleus • MN should be separated from or marginally overlap with main nucleus (=no blebs) • MN should have similar staining as the main nucleus
At least 1000 binucleated cells are evaluated per treatment replicate. Mitomycin C is used as reference stimulator of micronucleus formation. Cytotoxicity is evaluated in parallel and defined by comparing total nuclei count in compound-treated samples to neutral control samples treated with vehicle only (1% DMSO) (100% cytotoxicity means all cells are dead or lost).
A test compound is regarded as POSITIVE if generation of micronuclei and exhibition of less than 60% cytotoxicity at the same concentration can be observed.
Compounds are scored only in the soluble concentration range.
Experimental data of the compounds shown in Table 1 in the MNT assay are shown in Table 2 below and classified in the following groups: […]

Chain of human rec ACSS2 (Q9NR19 whole entry): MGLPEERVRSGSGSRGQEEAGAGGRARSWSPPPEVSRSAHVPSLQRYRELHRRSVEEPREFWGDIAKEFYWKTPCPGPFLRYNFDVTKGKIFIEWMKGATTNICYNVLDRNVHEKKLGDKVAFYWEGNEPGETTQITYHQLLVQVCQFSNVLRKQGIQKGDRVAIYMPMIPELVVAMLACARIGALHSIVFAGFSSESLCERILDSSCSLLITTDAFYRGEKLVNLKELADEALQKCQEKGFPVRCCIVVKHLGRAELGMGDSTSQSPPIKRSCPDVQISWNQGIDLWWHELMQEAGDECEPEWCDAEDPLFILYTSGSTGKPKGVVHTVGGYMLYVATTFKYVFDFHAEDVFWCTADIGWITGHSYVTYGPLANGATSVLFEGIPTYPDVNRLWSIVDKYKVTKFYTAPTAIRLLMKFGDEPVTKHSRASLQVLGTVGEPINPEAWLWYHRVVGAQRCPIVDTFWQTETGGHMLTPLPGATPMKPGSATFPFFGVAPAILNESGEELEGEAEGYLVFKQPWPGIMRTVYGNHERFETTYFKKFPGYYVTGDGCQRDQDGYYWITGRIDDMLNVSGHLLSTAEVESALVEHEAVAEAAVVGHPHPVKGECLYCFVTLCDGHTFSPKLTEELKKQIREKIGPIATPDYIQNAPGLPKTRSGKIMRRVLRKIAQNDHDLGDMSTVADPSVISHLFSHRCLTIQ
Chain of ACSS2 (Q9NR19 whole entry): as above

Row | SMILES | IC50 (human rec ACSS2) | IC50 (ACSS2) | MNT (CHO-K1 cells)
1 | CCn1c(C(O)(c2ccccc2)c2ccsc2)nc2nc(OC)c(-c3nnn[nH]3)cc21 (racemic) [Compound 30, [1-ethyl-5-methoxy-6-(1H-1,2,3,4-tetrazol-5-yl)-1H-imidazo[4,5-b]pyridin-2-yl](phenyl)(thiophen-3-yl)methanol] | 1 to 10 nM | 10 to 100 nM | A
2 | CCn1c(C(O)(c2ccccc2)c2cnn(C)c2)nc2nc(OC)c(-c3nnn[nH]3)cc21 (racemic) [Compound 36, [1-ethyl-5-methoxy-6-(1H-1,2,3,4-tetrazol-5-yl)-1H-imidazo[4,5-b]pyridin-2-yl](1-methyl-1H-pyrazol-4-yl)phenylmethanol] | 10 to 100 nM | 100 to 10000 nM | A
3 | CCn1c(C(O)(c2ccccc2)c2ccccc2C)nc2nc(OC)c(-c3nnn[nH]3)cc21 (racemic) [Compound 42, [1-ethyl-5-methoxy-6-(1H-1,2,3,4-tetrazol-5-yl)-1H-imidazo[4,5-b]pyridin-2-yl](2-methylphenyl)phenylmethanol] | 1 to 10 nM | 1 to 10 nM | A
4 | CCn1c(C(O)(c2ccccc2)c2ccc(OC(F)F)cc2F)nc2nc(OC)c(-c3nnn[nH]3)cc21 (racemic) [Compound 47, [4-(difluoromethoxy)-2-fluorophenyl][1-ethyl-5-methoxy-6-(1H-1,2,3,4-tetrazol-5-yl)-1H-imidazo[4,5-b]pyridin-2-yl]phenylmethanol] | 1 to 10 nM | 1 to 10 nM | A
5 | CCn1c(C(O)(c2ccc(OC(F)F)cc2)c2ccccc2F)nc2nc(OC)c(-c3nnn[nH]3)cc21 (racemic) [Compound 52, [4-(difluoromethoxy)phenyl][1-ethyl-5-methoxy-6-(1H-1,2,3,4-tetrazol-5-yl)-1H-imidazo[4,5-b]pyridin-2-yl](2-fluorophenyl)methanol] | 1 to 10 nM | 1 to 10 nM | A
6 | CCc1c(C(O)(c2ccccc2)c2ccccn2)nc2cc(Cl)c(-c3nnn[nH]3)cn12 (single isomer, unassigned) [Compound 8, [7-chloro-3-ethyl-6-(1H-tetrazol-5-yl)imidazo[1,2-a]pyridin-2-yl]-phenyl-(2-pyridyl)methanol] | 1 to 10 nM | 100 to 10000 nM | A
7 | CCc1c(C(O)(c2ccccc2)c2ccccn2)nc2cc(OC)c(-c3nnn[nH]3)cn12 (single isomer, unassigned) [Compound 10, [3-Ethyl-7-methoxy-6-(1H-tetrazol-5-yl)-imidazo[1,2-a]pyridin-2-yl]-phenyl-pyridin-2-yl-methanol] | 10 to 100 nM | 100 to 10000 nM | A
8 | CCn1c(C(O)(c2ccccc2)c2nccs2)nc2nc(OC)c(-c3nnn[nH]3)cc21 (single isomer, unassigned) [Compound 33, [1-ethyl-5-methoxy-6-(1H-1,2,3,4-tetrazol-5-yl)-1H-imidazo[4,5-b]pyridin-2-yl](phenyl)(1,3-thiazol-2-yl)methanol] | 10 to 100 nM | 10 to 100 nM | A
9 | CCc1c(C(O)(c2ccccc2F)c2ccccc2F)nn2cc(Cl)c(-c3nnn[nH]3)cc12 [Compound 20, [6-Chloro-3-ethyl-5-(1H-tetrazol-5-yl)-pyrazolo[1,5-a]pyridin-2-yl]-bis-(2-fluoro-phenyl)-methanol] | 1 to 10 nM | 10 to 100 nM | A
10 | CCc1c(C(O)(c2ccccc2)c2ccccc2)nn2cc(F)c(-c3nnn[nH]3)cc12 [Compound 23, [3-Ethyl-6-fluoro-5-(1H-tetrazol-5-yl)-pyrazolo[1,5-a]pyridin-2-yl]-diphenyl-methanol] | 10 to 100 nM | 10 to 100 nM | A
11 | CCn1c(C(O)(c2ccccc2)c2cccnn2)nc2nc(OC)c(-c3nnn[nH]3)cc21 (stereo not drawn) [Compound 27, [1-ethyl-5-methoxy-6-(1H-1,2,3,4-tetrazol-5-yl)-1H-imidazo[4,5-b]pyridin-2-yl](phenyl)(pyridazin-3-yl)methanol] | 1 to 10 nM | 1 to 10 nM | A
12 | CCn1c(C(O)(c2ccsc2)c2ccsc2)nc2nc(OC)c(-c3nnn[nH]3)cc21 [Compound 29, [1-ethyl-5-methoxy-6-(1H-1,2,3,4-tetrazol-5-yl)-1H-imidazo[4,5-b]pyridin-2-yl]bis(thiophen-3-yl)methanol] | 1 to 10 nM | 10 to 100 nM | A
13 | CCn1c(C(O)(c2ccccc2F)c2ccccc2F)nc2nc(F)c(-c3nnn[nH]3)cc21 [Compound 46, [1-ethyl-5-fluoro-6-(1H-1,2,3,4-tetrazol-5-yl)-1H-imidazo[4,5-b]pyridin-2-yl]bis(2-fluorophenyl)methanol] | 10 to 100 nM | 10 to 100 nM | A
14 | Cc1nc2nc(C(O)(c3ccccc3F)c3ccccc3F)n(C)c2cc1-c1nnn[nH]1 [Compound 55, [1,5-dimethy-6-(1H-1,2,3,4-tetrazol-5-yl)-1H-imidazo[4,5-b]pyridin-2-yl]bis(2-fluorophenyl)methanol] | 0.01 to 1 nM | 10 to 100 nM | A
15 | CCn1c(C(O)(c2ccccc2F)c2ccccc2F)nc2ncc(-c3nnn[nH]3)cc21 [Compound 61, [1-ethyl-6-(1H-1,2,3,4-tetrazol-5-yl)-1H-imidazo[4,5-b]pyridin-2-yl]bis(2-fluorophenyl)methanol] | 10 to 100 nM | 100 to 10000 nM | A
